Assay results as given in patent US20070197538A1, “Anti-vascular and anti-proliferation methods, therapies, and combinations employing specific tyrosine kinase inhibitors” (priority 2004, published 2007).
Entries after “also recorded” stand apart in the source; their conditions may differ. Counter-ions that a name gives are not always drawn.

Legend:
FLT3-ITD = assay: cellular FLT3 phosphorylation, immunoprecipitation/western blot; details: immunoprecipitations/western blot
MV4-11 cells (FLT3-ITD) = assay: MV4-11 cell growth, luminescence assay at 72 hours; type: cell-based, human
Description: Staurosporine, a non specific kinase inhibitor, was used as positive control.

Abl-1 = biological target: T1, Abl-1 (Homo sapiens, UniProt P00519); assay: recombinant kinase transphosphorylation (33P-ATP) profiling, Abl-1; type: biochemical; details: 10 concentrations, n=1
T1 construct: host or cells: baculovirus system
Protocol: (§1) The ability of a set of protein kinases—tyrosine and serine/threonine kinases expressed in a baculovirus system—to incorporate ^33P (from ^33P-ATP) in relevant substrates, in the presence of decreasing concentrations of the inhibitor (10 concentrations from 10^−5 to 3.10^−10, n=1) was determined.

FGF-R4 = biological target: T2, FGF-R4 (Homo sapiens, UniProt P22455); assay: recombinant kinase transphosphorylation (33P-ATP) profiling, FGF-R4; type: biochemical; details: 10 concentrations, n=1
T2 construct: host or cells: baculovirus system
T2 sequence (P22455 22-802): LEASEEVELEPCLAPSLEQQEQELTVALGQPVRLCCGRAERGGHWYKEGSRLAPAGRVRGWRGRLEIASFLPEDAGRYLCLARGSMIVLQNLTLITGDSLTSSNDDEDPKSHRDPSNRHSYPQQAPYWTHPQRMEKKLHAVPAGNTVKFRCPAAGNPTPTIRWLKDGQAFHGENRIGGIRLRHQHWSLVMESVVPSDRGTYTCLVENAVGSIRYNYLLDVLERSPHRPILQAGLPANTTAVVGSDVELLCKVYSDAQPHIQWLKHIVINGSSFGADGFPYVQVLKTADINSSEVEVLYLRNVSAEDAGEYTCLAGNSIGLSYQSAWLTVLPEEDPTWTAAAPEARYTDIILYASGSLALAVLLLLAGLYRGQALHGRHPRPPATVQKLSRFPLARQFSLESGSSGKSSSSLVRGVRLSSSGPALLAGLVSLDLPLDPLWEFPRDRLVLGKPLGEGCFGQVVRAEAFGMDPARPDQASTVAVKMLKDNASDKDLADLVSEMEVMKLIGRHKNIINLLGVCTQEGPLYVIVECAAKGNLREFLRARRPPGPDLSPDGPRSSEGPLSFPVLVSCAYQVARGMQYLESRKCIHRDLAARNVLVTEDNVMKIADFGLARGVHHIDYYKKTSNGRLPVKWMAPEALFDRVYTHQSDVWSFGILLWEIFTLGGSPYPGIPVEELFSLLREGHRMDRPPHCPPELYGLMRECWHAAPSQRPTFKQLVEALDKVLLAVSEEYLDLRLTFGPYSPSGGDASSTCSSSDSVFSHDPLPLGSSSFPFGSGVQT
Protocol: as §1

[1] = test system: MAPK, P13K and STAT5 pathways; assay: FLT3 downstream signaling phosphorylation in AML FLT3-ITD cell lines; type: cell-based; details: immunoprecipitations/western blot
Met = biological target: T3, Met (Homo sapiens, UniProt P08581); assay: recombinant kinase transphosphorylation (33P-ATP) profiling, Met; type: biochemical; details: 10 concentrations, n=1
T3 construct: host or cells: baculovirus system
Protocol: as §1

[2] = test system: RS4-11 cells (FLT3-wild type); assay: RS4-11 cell growth, luminescence assay at 72 hours; type: cell-based, human; details: with or without 100 ng/mL FLT3 ligand, FIGS. 5 and 6
MV4;11 or RS4;11 cells = assay: subcutaneous MV4;11 or RS4;11 tumors in athymic nu/nu mice; type: in vivo; details: oral, daily or 3 times per week, 50-200 mg/kg, pre-existing tumors
Protocol: Animals are randomized into treatment groups of 15 mice each for efficacy studies. […] Tumor growth is measured twice weekly using Vernier calipers for the duration of the treatment. Tumor volumes are calculated as the product of length x width x height. On completion of the experiments, mice are sacrificed and tumors are harvested for determination of FLT3 and phosphorylated FLT3 in tumor lysates by immunoprecipitation and Western-blot.

Src = biological target: T4, Src (Homo sapiens, UniProt P12931); assay: recombinant kinase transphosphorylation (33P-ATP) profiling, Src; type: biochemical; details: 10 concentrations, n=1
T4 construct: host or cells: baculovirus system

L3.6 pL pancreatic tumor = assay: orthotopic human pancreatic cancer L3.6 pL in nude mice; type: in vivo
Protocol: A pancreatic tumor which is shown to upregulate expression of PDGF AA, BB, A/B at metastatic sites is used for the in vivo studies. Other tumor systems that are known to upregulate expression of PDGF may also be used such as ovarian cancer, prostate cancer, bone metastasis, or breast cancer bone metastasis.
Tumor cells L3.6 pL derived from pancreatic cancer are injected into the pancreas of nude mice. The tumors are grown into detectable lesions.
Two days later, the mice are killed and the organs with and without tumors harvested, fixed, and immunostained to evaluate expression of PDGF AA, BB, A/B, PDGF-R (α,β) and status of phosphorylation of PDGF-R (α,β) on tumor cells and organ-specific endothelial cells.
The surviving mice are then killed and the size of tumor and metastasis is measured. Fixation of the tissues and staining of the tumor cells are performed. Endothelial cells are examined for division (PCNA), apoptosis (TUNEL), CD31 (endothelial cells). Expression of PDGF AA, BB, A/B, and phosphorylation of PDGF-Rα/β are further studied in these endothelial cells.

Irak = assay: recombinant kinase transphosphorylation (33P-ATP) profiling, Irak; type: biochemical; details: 10 concentrations, n=1
[3] = test system: Mouse endothelial cells from pancreas; assay: sensitivity of pancreas endothelial cells to Taxotere cytotoxicity; type: cell-based; details: with Taxotere
Protocol: Mouse endothelial cells from pancreas are maintained in culture at a temperature 33° C. where they are actively dividing.

FGR = biological target: T5, FGR (Homo sapiens, UniProt P09769); assay: recombinant kinase transphosphorylation (33P-ATP) profiling, FGR; type: biochemical; details: 10 concentrations, n=1
T5 construct: host or cells: baculovirus system
Protocol: as §1

MOLM-13 cells (FLT3-ITD) = assay: MOLM-13 cell growth, luminescence assay at 72 hours; type: cell-based
Description: Staurosporine, a non specific kinase inhibitor, is used as positive control.

MV4;11 cells = assay: intravenous MV4;11 leukemia model in NOD-SCID mice; type: in vivo
Protocol: In a subset of animals, bone marrow cell suspensions are prepared by flushing mouse femurs with cold sterile PBS, at experimental timepoints (within 90 days of implantation).

Kit = biological target: T6, Kit (Homo sapiens, UniProt P10721); assay: recombinant kinase transphosphorylation (33P-ATP) profiling, Kit; type: biochemical; details: 10 concentrations, n=1
T6 construct: host or cells: baculovirus system
T6 sequence (P10721 26-976): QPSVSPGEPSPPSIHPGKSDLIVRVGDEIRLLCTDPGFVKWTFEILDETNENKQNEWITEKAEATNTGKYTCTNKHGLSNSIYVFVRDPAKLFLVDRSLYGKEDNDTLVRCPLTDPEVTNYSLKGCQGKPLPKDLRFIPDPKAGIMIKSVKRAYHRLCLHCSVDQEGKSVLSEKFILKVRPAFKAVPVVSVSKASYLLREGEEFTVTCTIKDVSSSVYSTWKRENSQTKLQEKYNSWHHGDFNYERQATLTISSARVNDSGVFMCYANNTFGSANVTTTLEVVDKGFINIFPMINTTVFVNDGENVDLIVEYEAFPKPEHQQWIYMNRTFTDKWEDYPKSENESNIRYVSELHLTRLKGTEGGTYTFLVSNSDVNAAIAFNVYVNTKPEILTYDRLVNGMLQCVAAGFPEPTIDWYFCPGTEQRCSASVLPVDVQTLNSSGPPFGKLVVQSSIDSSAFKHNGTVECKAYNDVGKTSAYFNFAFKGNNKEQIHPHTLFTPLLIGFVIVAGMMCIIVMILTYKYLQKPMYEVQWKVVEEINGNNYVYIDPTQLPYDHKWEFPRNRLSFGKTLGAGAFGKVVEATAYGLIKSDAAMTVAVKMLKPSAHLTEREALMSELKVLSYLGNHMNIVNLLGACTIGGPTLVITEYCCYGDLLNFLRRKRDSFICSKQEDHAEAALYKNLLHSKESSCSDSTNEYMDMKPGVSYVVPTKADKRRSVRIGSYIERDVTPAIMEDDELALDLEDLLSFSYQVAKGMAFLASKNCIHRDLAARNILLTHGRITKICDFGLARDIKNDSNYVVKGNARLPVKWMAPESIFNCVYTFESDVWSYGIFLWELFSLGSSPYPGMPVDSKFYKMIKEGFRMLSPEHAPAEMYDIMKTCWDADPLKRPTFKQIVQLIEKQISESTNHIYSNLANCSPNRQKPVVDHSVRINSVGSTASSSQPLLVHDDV

Flt-3 = biological target: T7, Flt-3 (Homo sapiens, UniProt P36888); assay: recombinant kinase transphosphorylation (33P-ATP) profiling, Flt-3; type: biochemical; details: 10 concentrations, n=1
T7 construct: host or cells: baculovirus system
T7 sequence (P36888 27-993): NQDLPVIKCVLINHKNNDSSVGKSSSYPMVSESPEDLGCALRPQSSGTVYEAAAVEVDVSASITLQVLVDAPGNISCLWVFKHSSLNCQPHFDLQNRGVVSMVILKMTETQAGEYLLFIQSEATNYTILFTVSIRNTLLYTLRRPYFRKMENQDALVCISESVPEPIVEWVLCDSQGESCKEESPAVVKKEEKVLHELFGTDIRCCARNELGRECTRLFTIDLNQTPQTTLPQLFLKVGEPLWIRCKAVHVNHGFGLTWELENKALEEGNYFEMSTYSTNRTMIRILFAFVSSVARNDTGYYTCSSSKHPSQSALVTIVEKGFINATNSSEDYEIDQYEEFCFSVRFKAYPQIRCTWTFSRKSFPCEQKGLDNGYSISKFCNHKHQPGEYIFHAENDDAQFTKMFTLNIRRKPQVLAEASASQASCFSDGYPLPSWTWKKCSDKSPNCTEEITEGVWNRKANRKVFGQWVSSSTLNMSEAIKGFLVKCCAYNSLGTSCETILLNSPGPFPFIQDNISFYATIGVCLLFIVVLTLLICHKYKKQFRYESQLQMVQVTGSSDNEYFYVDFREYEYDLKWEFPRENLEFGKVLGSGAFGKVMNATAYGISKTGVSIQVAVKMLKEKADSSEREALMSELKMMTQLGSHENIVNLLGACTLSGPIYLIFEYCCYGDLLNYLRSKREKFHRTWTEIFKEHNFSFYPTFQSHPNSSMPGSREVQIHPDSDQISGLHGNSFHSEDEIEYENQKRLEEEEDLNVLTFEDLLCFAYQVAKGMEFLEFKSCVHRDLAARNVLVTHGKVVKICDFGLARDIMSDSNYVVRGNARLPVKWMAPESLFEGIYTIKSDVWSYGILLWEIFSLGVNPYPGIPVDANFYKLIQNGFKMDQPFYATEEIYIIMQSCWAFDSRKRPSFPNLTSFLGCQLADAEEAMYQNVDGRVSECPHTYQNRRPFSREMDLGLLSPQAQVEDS

IGF1-R = biological target: T8, IGF1-R (Homo sapiens, UniProt P08069); assay: recombinant kinase transphosphorylation (33P-ATP) profiling, IGF1-R; type: biochemical; details: 10 concentrations, n=1
T8 construct: host or cells: baculovirus system
Protocol: as §1

VEGF-R1 = biological target: T9, VEGF-R1 (Homo sapiens, UniProt P17948); assay: recombinant kinase transphosphorylation (33P-ATP) profiling, VEGF-R1; type: biochemical; details: 10 concentrations, n=1
T9 construct: host or cells: baculovirus system
T9 sequence (P17948 27-1338): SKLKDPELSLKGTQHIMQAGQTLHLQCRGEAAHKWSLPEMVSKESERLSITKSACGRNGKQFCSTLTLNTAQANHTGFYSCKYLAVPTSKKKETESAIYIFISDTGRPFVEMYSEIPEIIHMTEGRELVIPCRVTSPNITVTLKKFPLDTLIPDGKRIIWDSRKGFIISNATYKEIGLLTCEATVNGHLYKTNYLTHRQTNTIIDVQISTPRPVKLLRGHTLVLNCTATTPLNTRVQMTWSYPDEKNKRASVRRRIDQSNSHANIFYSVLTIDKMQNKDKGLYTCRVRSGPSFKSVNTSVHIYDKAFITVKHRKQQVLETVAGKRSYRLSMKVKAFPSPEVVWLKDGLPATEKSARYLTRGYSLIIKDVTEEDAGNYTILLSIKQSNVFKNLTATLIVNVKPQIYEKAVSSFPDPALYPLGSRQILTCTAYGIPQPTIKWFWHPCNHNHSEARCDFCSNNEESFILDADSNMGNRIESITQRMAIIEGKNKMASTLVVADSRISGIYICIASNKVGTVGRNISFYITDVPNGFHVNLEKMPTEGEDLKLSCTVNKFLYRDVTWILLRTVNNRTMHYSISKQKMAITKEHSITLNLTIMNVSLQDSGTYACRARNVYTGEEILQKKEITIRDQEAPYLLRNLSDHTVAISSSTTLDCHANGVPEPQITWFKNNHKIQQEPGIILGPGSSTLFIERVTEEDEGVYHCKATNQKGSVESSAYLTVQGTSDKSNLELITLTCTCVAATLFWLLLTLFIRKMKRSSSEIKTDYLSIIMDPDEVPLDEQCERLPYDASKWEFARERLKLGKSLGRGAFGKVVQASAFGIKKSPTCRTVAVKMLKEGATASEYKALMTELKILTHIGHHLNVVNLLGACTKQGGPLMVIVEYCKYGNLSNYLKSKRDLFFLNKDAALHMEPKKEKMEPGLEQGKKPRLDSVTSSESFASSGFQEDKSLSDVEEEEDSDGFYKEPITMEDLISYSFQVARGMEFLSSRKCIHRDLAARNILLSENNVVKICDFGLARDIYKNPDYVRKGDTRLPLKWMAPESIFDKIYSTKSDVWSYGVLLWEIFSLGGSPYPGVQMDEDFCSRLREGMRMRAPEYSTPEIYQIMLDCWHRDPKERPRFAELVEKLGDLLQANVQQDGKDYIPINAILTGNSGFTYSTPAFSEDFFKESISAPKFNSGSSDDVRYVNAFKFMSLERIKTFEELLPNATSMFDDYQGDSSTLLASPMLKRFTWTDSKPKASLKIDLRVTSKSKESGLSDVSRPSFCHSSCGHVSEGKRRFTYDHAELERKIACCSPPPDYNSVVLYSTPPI
Protocol: as §1

[4] = test system: AML193 cells (wild type FLT3); assay: AML193 cell growth, luminescence assay at 72 hours; details: with or without 100 ng/mL FLT3 ligand, GN963 at concentrations used (30 μM), FIGS. 3 and 4
MV4-11 and MOLM-13 cells = assay: apoptosis by annexin V-FITC / propidium iodide flow cytometry; type: cell-based; details: 48 to 72 hours incubation
Protocol: Apoptosis was evaluated by means of flow cytometry to measure cellular binding of an annexin V-FITC conjugate as well as uptake of the vital stain propidium iodide.

VEGF-R2 = biological target: T10, VEGF-R2 (Homo sapiens, UniProt P35968); assay: recombinant kinase transphosphorylation (33P-ATP) profiling, VEGF-R2; type: biochemical; details: 10 concentrations, n=1
T10 construct: host or cells: baculovirus system
Protocol: as §1

FGF-R1 = biological target: T11, FGF-R1 (Homo sapiens, UniProt P11362); assay: recombinant kinase transphosphorylation (33P-ATP) profiling, FGF-R1; type: biochemical; details: 10 concentrations, n=1
T11 construct: host or cells: baculovirus system
T11 sequence (P11362 22-822): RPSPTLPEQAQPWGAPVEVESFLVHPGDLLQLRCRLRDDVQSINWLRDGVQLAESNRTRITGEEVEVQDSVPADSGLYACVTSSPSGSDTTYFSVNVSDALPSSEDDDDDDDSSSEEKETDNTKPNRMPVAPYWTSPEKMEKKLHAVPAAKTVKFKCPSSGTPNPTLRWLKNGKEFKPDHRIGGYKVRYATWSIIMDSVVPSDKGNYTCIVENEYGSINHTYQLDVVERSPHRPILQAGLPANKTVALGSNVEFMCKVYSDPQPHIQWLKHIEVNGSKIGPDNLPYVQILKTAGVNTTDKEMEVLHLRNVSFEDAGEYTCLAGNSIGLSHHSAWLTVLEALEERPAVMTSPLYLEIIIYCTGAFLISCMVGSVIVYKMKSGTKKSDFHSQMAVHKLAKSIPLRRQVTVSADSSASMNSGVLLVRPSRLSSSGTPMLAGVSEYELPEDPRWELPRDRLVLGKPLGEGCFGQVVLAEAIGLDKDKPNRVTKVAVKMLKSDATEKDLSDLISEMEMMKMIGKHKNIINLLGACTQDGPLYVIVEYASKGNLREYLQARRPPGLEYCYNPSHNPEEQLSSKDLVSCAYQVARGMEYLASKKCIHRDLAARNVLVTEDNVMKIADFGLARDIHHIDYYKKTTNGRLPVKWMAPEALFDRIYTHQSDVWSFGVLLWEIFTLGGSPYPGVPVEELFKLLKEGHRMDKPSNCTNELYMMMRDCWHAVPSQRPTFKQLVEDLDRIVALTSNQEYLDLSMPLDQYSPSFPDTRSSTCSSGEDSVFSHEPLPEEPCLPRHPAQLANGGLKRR
Protocol: as §1

[5] = test system: protein kinases belonging to families different from the tyrosine kinase family; assay: kinase profiling, protein kinases outside the tyrosine kinase family; type: biochemical
Eph-B4 = biological target: T12, Eph-B4 (Homo sapiens, UniProt P54760); assay: recombinant kinase transphosphorylation (33P-ATP) profiling, Eph-B4; type: biochemical; details: 10 concentrations, n=1
T12 construct: host or cells: baculovirus system
Protocol: as §1

PDGFRb = biological target: T13, PDGFRb (Homo sapiens, UniProt P09619); assay: recombinant kinase transphosphorylation (33P-ATP) profiling, PDGFRb; type: biochemical; details: 10 concentrations, n=1
T13 construct: host or cells: baculovirus system

Ins-R = biological target: T14, Ins-R (Homo sapiens, UniProt P06213); assay: recombinant kinase transphosphorylation (33P-ATP) profiling, Ins-R; type: biochemical; details: 10 concentrations, n=1
T14 construct: host or cells: baculovirus system

EGF-R = biological target: T15, EGF-R (Homo sapiens, UniProt P00533); assay: recombinant kinase transphosphorylation (33P-ATP) profiling, EGF-R; type: biochemical; details: 10 concentrations, n=1
T15 construct: host or cells: baculovirus system

Lck = biological target: T16, Lck (Homo sapiens, UniProt P06239); assay: recombinant kinase transphosphorylation (33P-ATP) profiling, Lck; type: biochemical; details: 10 concentrations, n=1
T16 construct: host or cells: baculovirus system

PDGFRa = biological target: T17, PDGFRa (Homo sapiens, UniProt P16234); assay: recombinant kinase transphosphorylation (33P-ATP) profiling, PDGFRa; type: biochemical; details: 10 concentrations, n=1
T17 construct: host or cells: baculovirus system

Brk = biological target: T18, Brk (Homo sapiens, UniProt Q13882); assay: recombinant kinase transphosphorylation (33P-ATP) profiling, Brk; type: biochemical; details: 10 concentrations, n=1
T18 construct: host or cells: baculovirus system
Protocol: as §1

COc1cc2ncc(N[C@H]3CC[C@H](O)CC3)nc2cc1OC [GN963, trans-4-(6,7-dimethoxy-quinoxalin-2-ylamino)-cyclohexanol sulfate]
FLT3-ITD phosphorylation (FLT3-ITD): inhibited FLT3-ITD phosphorylation in a dose-dependent manner | effect on MV4-11 cell growth (MV4-11 cells (FLT3-ITD); 72 hours, luminescence assay, FIG. 1): inhibits MV4-11 cell growth in a dose dependent manner | IC50 (MV4-11 cells (FLT3-ITD); Homo sapiens, MV4-11, 72 h with inhibitor, Cell Titer-Glo, range stated for MV4-11 and MOLM-13 together, read-out: IC50, inhibition of cellular proliferation): 0.7 to 2 µM | IC50 (Abl-1): 13000 nM | IC50 (FGF-R4): > 10000 nM | STAT5, MAPK and P13K phosphorylation [1]: inhibits STAT5, MAPK and P13K phosphorylation in a dose-dependent manner | IC50 (Met): > 10000 nM | effect on RS4-11 cell growth [2]: not inhibited; also recorded: no effect | tumor growth (MV4;11 or RS4;11 cells): efficacy against tumor growth | IC50 (Src): 3600 nM | survival rate (L3.6 pL pancreatic tumor; combination with Taxotere, 4-6 weeks): higher survival rate | effect of the combination in cancer refractory to chemotherapy (L3.6 pL pancreatic tumor; combination with Taxotere, tumor cells resistant to Taxotere (MDR cells)): synergistic effect | expression of phosphorylated PDGF-R on endothelial cells (L3.6 pL pancreatic tumor; single oral dose, organs harvested two days later): inhibited | IC50 (Irak): 4100 nM | resistance of organ-specific endothelial cells to Taxotere increased by pancreatic tumor-conditioned medium [3]: reversal of this increased resistance | sensitivity of endothelial cells to cytotoxicity mediated by Taxotere ([3]; cells at 33° C.): increases sensitivity of endothelial cells to cytotoxicity mediated by Taxotere | IC50 (FGR): 17000 nM | effect on MOLM-13 cell growth (MOLM-13 cells (FLT3-ITD); 72 hours, luminescence assay, FIG. 2): dose response effect | IC50 (MOLM-13 cells (FLT3-ITD); Homo sapiens, MOLM-13, 72 h with inhibitor, Cell Titer-Glo, range stated for MV4-11 and MOLM-13 together, read-out: IC50, inhibition of cellular proliferation): 0.7 to 2 µM | large infiltrating cells with mitotic figures in bone marrow (MV4;11 cells; H&E-stained sections, oral 50-200 mg/kg): reduced numbers of large infiltrating cells with mitotic figures | CD45 positive cells in bone marrow (MV4;11 cells; flow cytometry, oral 50-200 mg/kg): reduced numbers of CD45 positive cells | survival (MV4;11 cells; oral, 50-200 mg/kg, once daily or 3 times per week): prolonged survival | IC50 (Kit): 7200 nM | IC50 (Flt-3): 1400 nM | IC50 (IGF1-R): > 10000 nM | IC50 (VEGF-R1): > 10000 nM | effect on AML193 cell growth [4]: not inhibited; also recorded: no effect | induction of apoptosis (MV4-11 and MOLM-13 cells): induce apoptosis | IC50 (VEGF-R2): > 10000 nM | IC50 (FGF-R1): > 10000 nM | phosphorylation mediated by protein kinases of families other than tyrosine kinases [5]: did not inhibit | IC50 (Eph-B4): 7200 nM

cis-4-(6,7-dimethoxy-quinoxalin-2-ylamino)-cyclohexanol sulfate [Cis-isomer]
IC50 (PDGFRb): 2200 nM | IC50 (Abl-1): 4400 nM | IC50 (FGF-R4): > 10000 nM | IC50 (Ins-R): > 10000 nM | IC50 (Met): 10000 nM | IC50 (Src): 3200 nM | IC50 (EGF-R): > 10000 nM | IC50 (Irak): > 10000 nM | IC50 (FGR): 4600 nM | IC50 (Kit): 6100 nM | IC50 (Flt-3): > 10000 nM | IC50 (IGF1-R): > 10000 nM | IC50 (Lck): 7500 nM | IC50 (VEGF-R1): > 10000 nM | IC50 (PDGFRa): 1400 nM | IC50 (FGF-R1): > 10000 nM | IC50 (Brk): 5700 nM | IC50 (Eph-B4): > 10000 nM
